Results from patent US12162856B2, “β-catenin and B-cell lymphoma 9 (BCL9) inhibitors” (H. LEE MOFFITT CANCER CENTER AND RESEARCH INSTITUTE, INC., priority 2019, dated 2024).
Where a name gives a salt, the structure may show the parent alone. Read-outs that look alike come from different tables or passages of the source.

Target: T1, β-catenin/BCL9 PPI (Homo sapiens, UniProt P35222)
T1 construct: Wild-type full-length β-catenin were cloned into a pET-28b vector; made in house; host or cells: Escherichia coli BL21 DE3 (β-catenin); BCL9 peptide chemically synthesized
T1 sequence (P35222 1-781): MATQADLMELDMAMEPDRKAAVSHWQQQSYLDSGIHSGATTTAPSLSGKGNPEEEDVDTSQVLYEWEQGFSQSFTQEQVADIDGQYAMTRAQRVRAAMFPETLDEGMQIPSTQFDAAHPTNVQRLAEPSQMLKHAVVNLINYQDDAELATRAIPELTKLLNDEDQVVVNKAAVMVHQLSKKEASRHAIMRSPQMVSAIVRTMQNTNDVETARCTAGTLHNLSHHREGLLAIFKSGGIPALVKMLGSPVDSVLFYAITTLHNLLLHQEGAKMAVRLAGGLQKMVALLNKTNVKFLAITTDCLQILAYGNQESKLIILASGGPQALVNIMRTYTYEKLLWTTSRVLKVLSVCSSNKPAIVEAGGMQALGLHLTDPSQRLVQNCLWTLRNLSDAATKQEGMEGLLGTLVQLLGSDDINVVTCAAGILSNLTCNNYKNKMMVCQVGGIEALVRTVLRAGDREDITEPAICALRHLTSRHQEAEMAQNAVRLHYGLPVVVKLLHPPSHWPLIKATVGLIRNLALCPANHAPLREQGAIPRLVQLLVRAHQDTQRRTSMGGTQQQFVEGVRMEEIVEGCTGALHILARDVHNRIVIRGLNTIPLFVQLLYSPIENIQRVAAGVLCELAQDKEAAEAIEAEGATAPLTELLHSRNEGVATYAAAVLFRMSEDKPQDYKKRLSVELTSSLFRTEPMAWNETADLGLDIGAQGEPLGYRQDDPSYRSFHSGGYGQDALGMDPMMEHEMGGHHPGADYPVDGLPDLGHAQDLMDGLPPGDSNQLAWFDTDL
Experiment: AlphaScreen competitive inhibition assay of the β-catenin/BCL9 PPI
Format: binding
Settings: mean ± SD, triplicate, Ki derived from IC50 (Nikolovska-Coleska equation)
Method: Protein expression and purification. Wild-type full-length β-catenin were cloned into a pET-28b vector carrying a C-terminal 6×histidine (Novagen), and transformed into Escherichia coli BL21 DE3 (Novagen). Cells were cultured in LB medium with 30 μg/mL kanamycin until the OD600 was approximately 0.8, and then protein expression was induced with 400 μM of IPTG at 20° C. overnight. Cells were lysed by sonication. The proteins were purified by Ni-NTA affinity chromatography (30210, Qiagen) and dialyzed against a buffer containing 20 mM of Tris (pH 8.5), 100 mM NaCl, 10% glycerol, and 3 mM DTT. The purity of β-eaten in was greater than 95% as determined by SDS-PAGE gel analysis. Native non-denaturing gel electrophoresis was performed to confirm the homogeneity of the purified proteins. Thermal-shift assay was performed on an iCycler iQ Real Time Detection System (Bio-Rad) to monitor protein stability and detect protein aggregation. Protein unfolding was evaluated through measuring the S15 fluorescence changes of fluorescent dye Sypro Orange when interacting with wild-type or mutant β-catenin proteins. A temperature increment of […] was applied. CD spectra were measured on a J-815 spectropolarimeter (Jasco). All spectra were recorded at room temperature, and the baseline control containing all of the substances except protein. Sample were prepared at a concentration around 1-5 μM in a buffer of 10 mM potassium phosphate and 100 mM potassium fluoride at pH 7.0 to ensure that the transmission of light through the sample was not restricted. All proteins were stable and no aggregation was observed under storage or assay conditions. Proteins were aliquoted and stored at −80° C.
BCL9 peptide synthesis and purification. Human BCL9 (residues 350-375), and […] biotinylated human BCL9 (residues 350-375) were synthesized. All synthesized peptides were purified by HPLC with purity >95%. The structures were validated by LC/MS. The sequences are as follows (Ahx, 6-aminohexanoic acid).
AlphaScreen competitive inhibition assays. For the competitive inhibition assays of the β-catenin/BCL9 PPI, the negative control (equivalent to 0% inhibition) refers to 5.0 nM of biotinylated BCL9, 40 nM of His6-tagged β-catenin, and 10 μg/mL of donor and acceptor beads in a final volume of 25 μL assay buffer, but no tested inhibitor present. The positive control (equivalent to 100% inhibition) refers to 5.0 nM of biotinylated BCL9 and […] of donor and acceptor beads in a final volume of 25 μL assay buffer.
For the β-catenin/BCL9 assay, 5 nM of biotinylated BCL9 and 40 nM of His6-tagged β-catenin were incubated in assay buffer at 4° C. for 30 min. Different concentrations of the tested inhibitor were added and incubated in 20 μL assay buffer at 4° C. for another 1 h. All of the above assay plates were covered and gently mixed on an orbital shaker. The donor and acceptor beads were then added to the plates to a final concentration of 10 μg/mL in 25 μL assay buffer. The mixture was incubated for 1 h at 4° C. before detection. The IC50 value was determined by nonlinear least-square analysis of GraphPad Prism 5.0. The Ki values were derived from the IC50 values using a method reported by Nikolovska-Coleska et al (Nikolovska-Coleska, Z.; Wang, R.; Fang, X.; Pan, H.; Tomita, Y.; Li, P.; Roller, P. P.; Krajewski, K.; Saito, N. G.; Stuckey, J. A.; Wang, S. Development and optimization of a binding assay for the XIAP BIR3 domain using fluorescence polarization. Anal. Biochem. 2004, 332, 261-273.). The assays were conducted under the conditions required by Nikolovska-Coleska et al.'s equation for determining the Ki values. All of the experiments were performed in triplicate. The results were expressed as mean±standard deviation.

[1] = experiment 1, read-out: Ki (μM ± SD) experiment 1
[2] = experiment 2, read-out: Ki (μM ± SD) experiment 2
[3] = experiment 3, read-out: Ki (μM ± SD) experiment 3
[4] = experiment 4, read-out: Ki (μM ± SD) experiment 4

## CN(C(=O)C1CCNCC1)c1cc(F)cc(C(=O)N2CCN(C(=O)c3ccc(O[C@H]4CCNC4)c(C4CCCCC4)c3)CC2)c1 [Compound 10, (S)—N-(3-(4-(3-cyclohexyl-4-(pyrrolidin-3-yloxy)benzoyl)piperazine-1-carbonyl)-5-fluorophenyl)-N-methylpiperidine-4-carboxamide ditrifluoroacetate]
[1]
  Ki: 420 ± 50 µM
[2]
  Ki: 76 ± 8.3 µM

## CC(=O)Nc1cc(F)cc(C(=O)N2CCN(C(=O)c3ccc(O[C@H]4CCNC4)c(C4CCCCC4)c3)[C@@H](C(C)C)C2)c1 [Compound 15, N-(3-((S)-4-(3-Cyclohexyl-4-(((S)-pyrrolidin-3-yl)oxy)benzoyl)-3-isopropylpiperazine-1-carbonyl)-5-fluorophenyl) acetamide trifluoroacetate]
[3]
  Ki: 280 ± 27 µM
[4]
  Ki: 290 ± 61 µM

## CN(C(=O)C(C)(C)CN)c1cc(F)cc(C(=O)N2CCN(C(=O)c3ccc(O[C@H]4CCNC4)c(C4CCCCC4)c3)CC2)c1 [Compound 9, (S)-3-amino-N-(3-(4-(3-cyclohexyl-4-(pyrrolidin-3-yloxy)benzoyl)piperazine-1-carbonyl)-5-fluorophenyl)-N,2,2-trimethylpropanamide ditrifluoroacetate]
[1]
  Ki: > 90 µM
[2]
  Ki: > 90 µM

## CN(C(=O)CCCN)c1cc(F)cc(C(=O)N2CCN(C(=O)c3ccc(O[C@H]4CCNC4)c(C4CCCCC4)c3)CC2)c1 [Compound 6, (S)-4-amino-N-(3-(4-(3-cyclohexyl-4-(pyrrolidin-3-yloxy)benzoyl)piperazine-1-carbonyl)-5-fluorophenyl)-N-methylbutanamide ditrifluoroacetate]
[1]
  Ki: 840 ± 64 µM
[2]
  Ki: 380 ± 44 µM

## NCCCCC(=O)Nc1cc(F)cc(C(=O)N2CCN(C(=O)c3ccc(O[C@H]4CCNC4)c(C4CCCCC4)c3)CC2)c1 [Compound 2, (S)-5-Amino-N-(3-(4-(3-cyclohexyl-4-(pyrrolidin-3-yloxy)benzoyl)piperazine-1-carbonyl)-5-fluorophenyl) pentanamide ditrifluoroacetate]
[1]
  Ki: 230 ± 33 µM
[2]
  Ki: 220 ± 26 µM

## CN(C(=O)C(C)(C)N)c1cc(F)cc(C(=O)N2CCN(C(=O)c3ccc(O[C@H]4CCNC4)c(C4CCCCC4)c3)CC2)c1 [Compound 8, (S)-2-amino-N-(3-(4-(3-cyclohexyl-4-(pyrrolidin-3-yloxy)benzoyl)piperazine-1-carbonyl)-5-fluorophenyl)-N,2-dimethylpropanamide ditrifluoroacetate]
[1]
  Ki: 32 ± 4 µM
[2]
  Ki: 71 ± 8.7 µM

## CC(C)(N)C(=O)Nc1cc(F)cc(C(=O)N2CCN(C(=O)c3ccc(O[C@H]4CCNC4)c(C4CCCCC4)c3)CC2)c1 [Compound 3, (S)-2-Amino-N-(3-(4-(3-cyclohexyl-4-(pyrrolidin-3-yloxy)benzoyl)piperazine-1-carbonyl)-5-fluorophenyl)-2-methylpropanamide ditrifluoroacetate]
[1]
  Ki: 310 ± 32 µM
[2]
  Ki: 550 ± 46 µM

## CC(=O)Nc1cc(F)cc(C(=O)N2CCN(C(=O)c3ccc(O[C@H]4CCNC4)c(C4CCCCC4)c3)CC2)c1 [Compound 12, (S)—N-(3-(4-(3-Cyclohexyl-4-(pyrrolidin-3-yloxy)benzoyl)piperazine-1-carbonyl)-5-fluorophenyl) acetamide trifluoroacetate]
[3]
  Ki: 61 ± 7.5 µM
[4]
  Ki: 37 ± 3.6 µM

## NCCCC(=O)Nc1cc(F)cc(C(=O)N2CCN(C(=O)c3ccc(O[C@H]4CCNC4)c(C4CCCCC4)c3)CC2)c1 [Compound 1, (S)-4-Amino-N-(3-(4-(3-cyclohexyl-4-(pyrrolidin-3-yloxy)benzoyl)piperazine-1-carbonyl)-5-fluorophenyl) butanamide ditrifluoroacetate]
[1]
  Ki: 310 ± 48 µM
[2]
  Ki: 310 ± 23 µM

## CN(C(=O)CCCCN)c1cc(F)cc(C(=O)N2CCN(C(=O)c3ccc(O[C@H]4CCNC4)c(C4CCCCC4)c3)CC2)c1 [Compound 7, (S)-5-amino-N-(3-(4-(3-cyclohexyl-4-(pyrrolidin-3-yloxy)benzoyl)piperazine-1-carbonyl)-5-fluorophenyl)-N-methylpentanamide ditrifluoroacetate]
[1]
  Ki: 730 ± 73 µM
[2]
  Ki: 240 ± 33 µM

## CC(C)(CN)C(=O)Nc1cc(F)cc(C(=O)N2CCN(C(=O)c3ccc(O[C@H]4CCNC4)c(C4CCCCC4)c3)CC2)c1 [Compound 4, (S)-3-Amino-N-(3-(4-(3-cyclohexyl-4-(pyrrolidin-3-yloxy)benzoyl)piperazine-1-carbonyl)-5-fluorophenyl)-2,2-dimethylpropanamide ditrifluoroacetate]
[1]
  Ki: 780 ± 59 µM
[2]
  Ki: 310 ± 43 µM

## CC(=O)Nc1cc(F)cc(C(=O)N2CCN(C(=O)c3ccc(O[C@H]4CCNC4)c(C4CCCCC4)c3)[C@@H](C)C2)c1 [Compound 13, N-(3-((S)-4-(3-Cyclohexyl-4-(((S)-pyrrolidin-3-yl)oxy)benzoyl)-3-methylpiperazine-1-carbonyl)-5-fluorophenyl) acetamide trifluoroacetate]
[3]
  Ki: 330 ± 34 µM
[4]
  Ki: 100 ± 18 µM

## CC(=O)Nc1cc(F)cc(C(=O)N2CCN(C(=O)c3ccc(O[C@H]4CCNC4)c(C4CCCCC4)c3)[C@@H](CC(C)C)C2)c1 [Compound 16, N-(3-((S)-4-(3-Cyclohexyl-4-(((S)-pyrrolidin-3-yl)oxy)benzoyl)-3-isobutylpiperazine-1-carbonyl)-5-fluorophenyl)acetamide trifluoroacetate]
[3]
  Ki: 330 ± 43 µM
[4]
  Ki: 200 ± 20 µM

## CC[C@H]1CN(C(=O)c2cc(F)cc(NC(C)=O)c2)CCN1C(=O)c1ccc(O[C@H]2CCNC2)c(C2CCCCC2)c1 [Compound 14, N-(3-((S)-4-(3-Cyclohexyl-4-(((S)-pyrrolidin-3-yl)oxy)benzoyl)-3-ethylpiperazine-1-carbonyl)-5-fluorophenyl) acetamide trifluoroacetate]
[3]
  Ki: 790 ± 58 µM
[4]
  Ki: 780 ± 130 µM

## O=C(Nc1cc(F)cc(C(=O)N2CCN(C(=O)c3ccc(O[C@H]4CCNC4)c(C4CCCCC4)c3)CC2)c1)C1CCNCC1 [Compound 5, (S)—N-(3-(4-(3-cyclohexyl-4-(pyrrolidin-3-yloxy)benzoyl)piperazine-1-carbonyl)-5-fluorophenyl) piperidine-4-carboxamide ditrifluoroacetate]
[1]
  Ki: 157 ± 17 µM
[2]
  Ki: 160 ± 22 µM
